A word on the DC50: it is the concentration at which degradation of the target reaches its halfway point. One may read the IC50 as the concentration that gives 50% inhibition.

Bounds are passed on as bounds.

Among the data in US20260256925A1, “INDAZOLE DERIVATIVES AS ESTROGEN RECEPTOR DEGRADERS” (REGENTS OF THE UNIVERSITY OF MICHIGAN, priority 2022, published 2026) are DC50 and IC50 values, retold here.

One assay concerns the target T1, ER (Homo sapiens, UniProt P03372).
T1 construct: endogenous in cells; probably T47D or MCF-7
T1 sequence (P03372 1-595): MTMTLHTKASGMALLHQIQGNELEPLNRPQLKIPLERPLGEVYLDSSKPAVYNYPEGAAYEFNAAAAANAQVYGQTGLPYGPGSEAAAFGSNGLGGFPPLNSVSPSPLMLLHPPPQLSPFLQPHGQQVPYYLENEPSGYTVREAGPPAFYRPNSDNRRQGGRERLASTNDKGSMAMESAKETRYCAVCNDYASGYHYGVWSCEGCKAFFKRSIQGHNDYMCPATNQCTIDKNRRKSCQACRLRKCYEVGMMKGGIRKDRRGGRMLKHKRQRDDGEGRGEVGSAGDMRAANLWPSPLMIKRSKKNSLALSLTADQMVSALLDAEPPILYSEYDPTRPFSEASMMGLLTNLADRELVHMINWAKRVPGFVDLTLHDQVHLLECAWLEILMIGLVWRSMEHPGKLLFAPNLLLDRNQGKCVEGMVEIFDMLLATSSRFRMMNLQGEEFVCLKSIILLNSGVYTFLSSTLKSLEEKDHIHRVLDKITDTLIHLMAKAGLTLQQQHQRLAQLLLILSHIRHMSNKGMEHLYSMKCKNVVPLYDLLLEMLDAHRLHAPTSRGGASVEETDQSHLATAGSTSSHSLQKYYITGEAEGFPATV
In words: In-cell western blot analysis, relative ER percentage (compounds B1-B126). The note with it: ER degradation, 16 hours, read-out: ICW DC50. It is filed as cell-based. The procedure, abridged:
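Readout was a two-colour infrared in-cell western of formaldehyde-fixed cells after 16 h compound exposure at 0.5% DMSO, with 40,000 or 10,000 cells/well plated the previous night. Relative ER percentage compares treated wells against untreated/DMSO-treated wells taken as 100%.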

Assay [1] can be described thus: Cell growth assay, WST-8 (compounds B1-B126). Type of assay: cell-based. The note with it: 96 h; T47D cell line, WST-8, 4 days; read-out: Cell growth inhibition in T47D cell line IC50. As to the method:
Cell Growth Assay. The cells are seeded at certain concentration (e.g., at 1500/well) in multi-well plates overnight. Cells are subsequently treated with the compounds. A certain period of time (e.g., 4 days) after the compound treatment, 10% WST-8 reagent is added to the culture medium and incubate under certain condiction (e.g., in a CO2 incubator at 37° C. for 2.5 hours). The absorbance is measured on each sample using a microplate reader at certain wavelength (e.g., 450 nm). The relative absorbance is calculated against the vehicle control from three individually repeats.
Cell Growth Assay. The cells were seeded at 1500/well in 96 well plates overnight. One day after the seeding, they were treated with indicated doses of compounds respectively. 4 days after the compound treatment, 10% WST-8 reagent was added to the culture medium and incubate in a CO2 incubator at 37° C. for 2.5 hours. Before reading, the plate was mixed gently on an orbital shaker for one minute to ensure homogeneous distribution of color. The absorbance was measured of each sample using a microplate reader at a wavelength of 450 nm. The relative absorbance was calculated against the vehicle control from three individually repeats.
On the technique in general: Tetrazolium dyes change colour on reduction, which living cells bring about.

For the molecule `C[C@@H]1Cc2c(ccc3[nH]ncc23)[C@@H](c2c(F)cc(N3CCC4(CN(C(=O)CN5CCN6c7cc8c(cc7OC[C@@H]6C5)C(=O)N(C5CCC(=O)NC5=O)C8)C4)C3)cc2F)N1CC(F)F` (stereo partly drawn) [Compound B37, 3-((S)-3-(2-(6-(4-((6S,8R)-7-(2,2-difluoroethyl)-8-methyl-6,7,8,9-tetrahydro-3H-pyrazolo[4,3-f]isoquinolin-6-yl)-3,5-difluorophenyl)-2,6-diazaspiro[3.4]octan-2-yl)-2-oxoethyl)-8-oxo-1,2,3,4,4a,5,8,10-octahydro-9H-pyrazino[1′,2′:4,5][1,4]oxazino[2,3-f]isoindol-9-yl)piperidine-2,6-dione], the DC50 on ER was less than 10 nM. Further, the IC50 in assay [1] is less than 1 nM.
The like results for `C[C@@H]1Cc2c(ccc3[nH]ncc23)[C@@H](c2c(F)cc(N3CC4(CN(CC(=O)N5CCN6c7cc8c(cc7OC[C@@H]6C5)C(=O)N(C5CCC(=O)NC5=O)C8)C4)C3)cc2F)N1CC(F)F` (stereo partly drawn) [Compound B38, 3-((S)-3-(2-(6-(4-((6S,8R)-7-(2,2-difluorocthyl)-8-mcthyl-6,7,8,9-tetrahydro-3H-pyrazolo[4,3-f]isoquinolin-6-yl)-3,5-difluorophenyl)-2,6-diazaspiro[3.3]heptan-2-yl)acetyl)-8-oxo-1,2,3,4,4a,5,8,10-octahydro-9H-pyrazino[1′,2′:4,5][1,4]oxazino[2,3-f]isoindol-9-yl)piperidine-2,6-dione] were, in that order, less than 10 nM and less than 1 nM.
On the same counts, the results for `C[C@@H]1Cc2c(ccc3[nH]ncc23)[C@@H](c2c(F)cc(NC3CC4(C3)CN(C(=O)CN3CCN5c6cc7c(cc6OC[C@@H]5C3)C(=O)N(C3CCC(=O)NC3=O)C7)C4)cc2F)N1CC(F)F` (stereo partly drawn) [Compound B39, 3-((S)-3-(2-(6-((4-((6S,8R)-7-(2,2-difluoroethyl)-8-methyl-6,7,8,9-tetrahydro-3H-pyrazolo[4,3-f]isoquinolin-6-yl)-3,5-difluorophenyl)amino)-2-azaspiro[3.3]heptan-2-yl)-2-oxoethyl)-8-oxo-1,2,3,4,4a,5,8,10-octahydro-9H-pyrazino[1′,2′:4,5][1,4]oxazino[2,3-f]isoindol-9-yl)piperidine-2,6-dione] are less than 10 nM and less than 1 nM.
On the same counts, the results for `C[C@@H]1Cc2c(ccc3[nH]ncc23)[C@@H](c2c(F)cc(N3CC4(CCN(CC(=O)N5CCN6c7cc8c(cc7OC[C@@H]6C5)C(=O)N(C5CCC(=O)NC5=O)C8)C4)C3)cc2F)N1CC(F)F` (stereo partly drawn) [Compound B40, 3-((S)-3-(2-(2-(4-((6S,8R)-7-(2,2-difluoroethyl)-8-methyl-6,7,8,9-tetrahydro-3H-pyrazolo[4,3-f]isoquinolin-6-yl)-3,5-difluorophenyl)-2,6-diazaspiro[3.4]octan-6-yl)acetyl)-8-oxo-1,2,3,4,4a,5,8,10-octahydro-9H-pyrazino[1′,2′:4,5][1,4]oxazino[2,3-f]isoindol-9-yl)piperidine-2,6-dione] are less than 10 nM and less than 1 nM.
On to `C[C@@H]1Cc2c(ccc3[nH]ncc23)[C@@H](c2c(F)cc(N3CCC4(CN(CC(=O)N5CCN6c7cc8c(cc7OC[C@@H]6C5)C(=O)N(C5CCC(=O)NC5=O)C8)C4)C3)cc2F)N1CC(F)F` (stereo partly drawn) [Compound B41, 3-((S)-3-(2-(6-(4-((6S,8R)-7-(2,2-difluoroethyl)-8-methyl-6,7,8,9-tetrahydro-3H-pyrazolo[4,3-f]isoquinolin-6-yl)-3,5-difluorophenyl)-2,6-diazaspiro[3.4]octan-2-yl)acetyl)-8-oxo-1,2,3,4,4a,5,8,10-octahydro-9H-pyrazino[1′,2′:4,5][1,4]oxazino[2,3-f]isoindol-9-yl)piperidine-2,6-dione], for which, at ER, the 50% degradation concentration (DC50) was less than 10 nM. For the same molecule, in assay [1], the IC50 is less than 1 nM.
On to `C[C@@H]1Cc2c(ccc3[nH]ncc23)[C@@H](c2c(F)cc(NC3CC4(C3)CN(CC(=O)N3CCN5c6cc7c(cc6OC[C@@H]5C3)C(=O)N(C3CCC(=O)NC3=O)C7)C4)cc2F)N1CC(F)F` (stereo partly drawn) [Compound B42, 3-((S)-3-(2-(6-((4-((6S,8R)-7-(2,2-difluoroethyl)-8-methyl-6,7,8,9-tetrahydro-3H-pyrazolo[4,3-f]isoquinolin-6-yl)-3,5-difluorophenyl)amino)-2-azaspiro[3.3]heptan-2-yl)acetyl)-8-oxo-1,2,3,4,4a,5,8,10-octahydro-9H-pyrazino[1′,2′:4,5][1,4]oxazino[2,3-f]isoindol-9-yl)piperidine-2,6-dione], for which the 50% degradation concentration (DC50) on ER is less than 10 nM. For the same molecule, the IC50 in assay [1] was less than 1 nM.
The like results for `C[C@H]1Cc2c(ccc3[nH]ncc23)[C@H](c2ccc(NC3CN(CC(=O)N4CCN5c6cc7c(cc6OC[C@@H]5C4)C(=O)N(C4CCC(=O)NC4=O)C7)C3)cn2)N1CC(F)(F)F` (stereo partly drawn) [Compound B43, 3-((S)-3-(2-(3-((6-((6R,8S)-8-methyl-7-(2,2,2-trifluoroethyl)-6,7,8,9-tetrahydro-3H-pyrazolo[4,3-f]isoquinolin-6-yl)pyridin-3-yl)amino)azetidin-1-yl)acetyl)-8-oxo-1,2,3,4,4a,5,8,10-octahydro-9H-pyrazino[1′,2′:4,5][1,4]oxazino[2,3-f]isoindol-9-yl)piperidine-2,6-dione] were, in that order, 10 to 100 nM and 1 to 10 nM.
On the same counts, the results for `C[C@@H]1Cc2c(ccc3[nH]ncc23)[C@@H](c2c(F)cc(NC3CC4(C3)CN(C(=O)CN3Cc5cc6c(cc5C3)C(=O)N(C3CCC(=O)NC3=O)C6=O)C4)cc2F)N1CC(F)F` (stereo partly drawn) [Compound B44, 6-(2-(6-((4-((6S,8R)-7-(2,2-difluoroethyl)-8-methyl-6,7,8,9-tetrahydro-3H-pyrazolo[4,3-f]isoquinolin-6-yl)-3,5-difluorophenyl)amino)-2-azaspiro[3.3]heptan-2-yl)-2-oxoethyl)-2-(2,6-dioxopiperidin-3-yl)-6,7-dihydropyrrolo[3,4-f]isoindole-1,3(2H,5H)-dione] are less than 10 nM and less than 1 nM.
The like results for `C[C@@H]1Cc2c(ccc3[nH]ncc23)[C@@H](c2c(F)cc(NC3CC4(C3)CN(CC(=O)N3Cc5cc6c(cc5C3)C(=O)N(C3CCC(=O)NC3=O)C6=O)C4)cc2F)N1CC(F)F` (stereo partly drawn) [Compound B45, 6-(2-(6-((4-((6S,8R)-7-(2,2-difluoroethyl)-8-methyl-6,7,8,9-tetrahydro-3H-pyrazolo[4,3-f]isoquinolin-6-yl)-3,5-difluorophenyl)amino)-2-azaspiro[3.3]heptan-2-yl)acetyl)-2-(2,6-dioxopiperidin-3-yl)-6,7-dihydropyrrolo[3,4-f]isoindole-1,3(2H,5H)-dione] were, in that order, 10 to 100 nM and 1 to 10 nM.
`C[C@@H]1Cc2c(ccc3[nH]ncc23)[C@@H](c2c(F)cc(N3CCC(CN4CC(N5CCN6c7cc8c(cc7OC[C@@H]6C5)C(=O)N(C5CCC(=O)NC5=O)C8)C4)CC3)cc2F)N1CC(F)F` (stereo partly drawn) [Compound B46, 3-((S)-3-(1-((1-(4-((6S,8R)-7-(2,2-difluoroethyl)-8-methyl-6,7,8,9-tetrahydro-3H-pyrazolo[4,3-f]isoquinolin-6-yl)-3,5-difluorophenyl)piperidin-4-yl)methyl)azetidin-3-yl)-8-oxo-1,2,3,4,4a,5,8,10-octahydro-9H-pyrazino[1′,2′:4,5][1,4]oxazino[2,3-f]isoindol-9-yl)piperidine-2,6-dione]: at ER, the 50% degradation concentration (DC50) is less than 10 nM. Besides, in assay [1], the half-maximal inhibitory concentration (IC50) was less than 1 nM.
